Each structure is given as a SMILES string.

In this assay the test system is Prostaglandin E2 (PGE2). As to the kind of experiment: Anti-inflammatory activity: PGE2 quantification by ELISA in cells stimulated by IL-1α. Type of assay: cell-based. To be noted: IL-1α (5 pM), Cycloheximide 100 µg/ml. As to the method: When cells are stimulated by an inflammatory agent PGE2 is synthesized de novo and released into the extracellular space. Thus quantification of PGE2 is used to asses the anti-inflammatory activity products.
In the present example the anti-inflammatory activity of the extract of example 2 was determined by quantification of PGE2 in cells stimulated by IL-1α using a kit for an enzyme-linked immunosorbent assay (ELISA). The kit used was Prostaglandin E2 EIA kit Item n° 514010 from Cayman Chemical.
Prostaglandin E2 assay is based on competition between the PGE^2 to be determined and a fixed amount of added PGE2-acetylcholinesterase (AChE) conjugate (PGE2 tracer) for a limited amount of PGE2 monoclonal antibody. The amount of PGE2 tracer able to bind the PGE2 monoclonal antibody will be inversely proportional to the concentration of PGE2 in the well. Both the antibody-PGE2 complex and then antibody-PGE2 tracer complex bind to polyclonal goat anti-mouse IgG previously bound to the well. Then the plate is washed to remove any unbound reagent and Ellman's reagent is added to determine the amount of AChE bound to the well. […] The intensity of this color, determined by UV-Vis spectrophotometry, is proportional to the amount of PGE2 tracer bound […], which is inversely proportional to the amount of PGE2 present in the free well during incubation.

Take `C[C@@H]1C[C@@H]([C@H](O)CC2CC(=O)NC(=O)C2)C(=O)[C@@H](C)C1` [Cycloheximide]: the “PGE2” value worked out at 31.85 pg/mL and the inhibition at 100 µg/mL is 97.6%.

The values are drawn from EP3335764A1, “A STRAIN OF A[…] APPLICATIONS THEREOF” (Infinitec Activos S.L., priority 2016, dated 2018).
